Test results published in ChEMBL document CHEMBL3862012, “Methylene versus carbonyl bridge in the structure of new tubulin polymerization inhibitors with tricyclic A-rings” (Bioorg Med Chem, 2016).

Key:
[1] = Cytotoxicity against human HOP92 cells assessed as growth inhibition at 10 uM after 48 hrs by SRB assay relative to control; format: functional; conditions: HOP-92, 48 h, read-out: GI
[2] = Cytotoxicity against human SNB75 cells assessed as growth inhibition at 10 uM after 48 hrs by SRB assay relative to control; format: functional; conditions: SNB-75, 48 h, read-out: GI
[3] = Cytotoxicity against human HT-29 cells assessed as growth inhibition at 10 uM after 48 hrs by SRB assay relative to control; format: functional; conditions: HT-29, 48 h, read-out: GI
[4] = Cytotoxicity against human SNB19 cells assessed as growth inhibition at 10 uM after 48 hrs by SRB assay relative to control; format: functional; conditions: SNB-19, 48 h, read-out: GI
[5] = Cytotoxicity against human MDA-MB-435 cells assessed as growth inhibition at 10 uM after 48 hrs by SRB assay relative to control; format: functional; conditions: MDA-MB-435, 48 h, read-out: GI
[6] = Cytotoxicity against human ACHN cells assessed as growth inhibition at 10 uM after 48 hrs by SRB assay relative to control; format: functional; conditions: read-out: GI
[7] = Cytotoxicity against human EKVX cells assessed as growth inhibition at 10 uM after 48 hrs by SRB assay relative to control; format: functional; conditions: read-out: GI
[8] = Cytotoxicity against human SW620 cells assessed as growth inhibition at 10 uM after 48 hrs by SRB assay relative to control; format: functional; conditions: SW-620, 48 h, read-out: GI
[9] = Cytotoxicity against human M14 cells assessed as growth inhibition at 10 uM after 48 hrs by SRB assay relative to control; format: functional; conditions: M14, 48 h, read-out: GI
[10] = Cytotoxicity against human NCI-H522 cells assessed as growth inhibition at 10 uM after 48 hrs by SRB assay relative to control; format: functional; conditions: NCI-H522, 48 h, read-out: GI
[11] = Cytotoxicity against human A549 cells assessed as growth inhibition at 10 uM after 48 hrs by SRB assay relative to control; format: functional; conditions: A549, 48 h, read-out: GI
[12] = Cytotoxicity against human PC3 cells assessed as growth inhibition at 10 uM after 48 hrs by SRB assay relative to control; format: functional; conditions: PC-3, 48 h, read-out: GI
[13] = Cytotoxicity against human IGROV1 cells assessed as growth inhibition at 10 uM after 48 hrs by SRB assay relative to control; format: functional; conditions: IGROV-1, 48 h, read-out: GI
[14] = Cytotoxicity against human LOXIMVI cells assessed as growth inhibition at 10 uM after 48 hrs by SRB assay relative to control; format: functional; conditions: LOX IMVI, read-out: GI
[15] = Cytotoxicity against human MDA-MB-468 cells assessed as growth inhibition at 10 uM after 48 hrs by SRB assay relative to control; format: functional; conditions: MDA-MB-468, 48 h, read-out: GI
[16] = Cytotoxicity against human SF268 cells assessed as growth inhibition at 10 uM after 48 hrs by SRB assay relative to control; format: functional; conditions: SF-268, 48 h, read-out: GI
[17] = Cytotoxicity against human MOLT4 cells assessed as growth inhibition at 10 uM after 48 hrs by SRB assay relative to control; format: functional; conditions: MOLT-4, 48 h, read-out: GI
[18] = Cytotoxicity against human MALME-3M cells assessed as growth inhibition at 10 uM after 48 hrs by SRB assay relative to control; format: functional; conditions: read-out: GI
[19] = Cytotoxicity against human SF295 cells assessed as growth inhibition at 10 uM after 48 hrs by SRB assay relative to control; format: functional; conditions: SF-295, 48 h, read-out: GI
[20] = Cytotoxicity against human OVCAR4 cells assessed as growth inhibition at 10 uM after 48 hrs by SRB assay relative to control; format: functional; conditions: OVCAR-4, 48 h, read-out: GI
[21] = Cytotoxicity against human 786-0 cells assessed as growth inhibition at 10 uM after 48 hrs by SRB assay relative to control; format: functional; conditions: 786-0, 48 h, read-out: GI
[22] = Cytotoxicity against human MCF7 cells assessed as growth inhibition at 10 uM after 48 hrs by SRB assay relative to control; format: functional; conditions: MCF7, 48 h, read-out: GI
[23] = Cytotoxicity against human SK-MEL-2 cells assessed as growth inhibition at 10 uM after 48 hrs by SRB assay relative to control; format: functional; conditions: SK-MEL-2, 48 h, read-out: GI
[24] = Cytotoxicity against human U251 cells assessed as growth inhibition at 10 uM after 48 hrs by SRB assay relative to control; format: functional; conditions: U-251, 48 h, read-out: GI
[25] = Cytotoxicity against human Caki1 cells assessed as growth inhibition at 10 uM after 48 hrs by SRB assay relative to control; format: functional; conditions: CAKI-1, 48 h, read-out: GI
[26] = organism: Ovis aries; assay: Inhibition of sheep brain tubulin polymerization at 100 uM by DAPI staining-based fluorimetric method relative to control
[27] = Cytotoxicity against human BT549 cells assessed as growth inhibition at 10 uM after 48 hrs by SRB assay relative to control; format: functional; conditions: BT-549, 48 h, read-out: GI
[28] = Cytotoxicity against human CCRF-CEM cells assessed as growth inhibition at 10 uM after 48 hrs by SRB assay relative to control; format: functional; conditions: read-out: GI
[29] = Cytotoxicity against human NCI-H460 cells assessed as growth inhibition at 10 uM after 48 hrs by SRB assay relative to control; format: functional; conditions: NCI-H460, 48 h, read-out: GI
[30] = Cytotoxicity against human DU145 cells assessed as growth inhibition at 10 uM after 48 hrs by SRB assay relative to control; format: functional; conditions: DU-145, 48 h, read-out: GI
[31] = Cytotoxicity against human MDA-MB-231 cells assessed as growth inhibition at 10 uM after 48 hrs by SRB assay relative to control; format: functional; conditions: MDA-MB-231, 48 h, read-out: GI
[32] = Cytotoxicity against human OVCAR5 cells assessed as growth inhibition at 10 uM after 48 hrs by SRB assay relative to control; format: functional; conditions: OVCAR-5, 48 h, read-out: GI
[33] = Cytotoxicity against human HOP62 cells assessed as growth inhibition at 10 uM after 48 hrs by SRB assay relative to control; format: functional; conditions: HOP-62, 48 h, read-out: GI
[34] = Cytotoxicity against human OVCAR3 cells assessed as growth inhibition at 10 uM after 48 hrs by SRB assay relative to control; format: functional; conditions: OVCAR-3, 48 h, read-out: GI
[35] = Cytotoxicity against human UO31 cells assessed as growth inhibition at 10 uM after 48 hrs by SRB assay relative to control; format: functional; conditions: UO-31, 48 h, read-out: GI
[36] = Cytotoxicity against human SKOV3 cells assessed as growth inhibition at 10 uM after 48 hrs by SRB assay relative to control; format: functional; conditions: SK-OV-3, 48 h, read-out: GI
[37] = Cytotoxicity against human SF539 cells assessed as growth inhibition at 10 uM after 48 hrs by SRB assay relative to control; format: functional; conditions: SF-539, 48 h, read-out: GI

Row | SMILES | inhibition of growth at 10 µM [1] | inhibition of growth at 10 µM [2] | inhibition of growth at 10 µM [3] | inhibition of growth at 10 µM [4] | inhibition of growth at 10 µM [5] | inhibition of growth at 10 µM [6] | inhibition of growth at 10 µM [7] | inhibition of growth at 10 µM [8] | inhibition of growth at 10 µM [9] | inhibition of growth at 10 µM [10] | inhibition of growth at 10 µM [11] | inhibition of growth at 10 µM [12] | inhibition of growth at 10 µM [13] | inhibition of growth at 10 µM [14] | inhibition of growth at 10 µM [15] | inhibition of growth at 10 µM [16] | inhibition of growth at 10 µM [17] | inhibition of growth at 10 µM [18] | inhibition of growth at 10 µM [19] | inhibition of growth at 10 µM [20] | further results
1 | COc1ccc(CN2c3ccccc3Oc3ccccc32)cc1F | 33% | 52% | 89% | 32% | 100% | 19% | 39% | 66% | 66% | 100% | 56% | 35% | 48% | 41% | 56% | 15% | 58% | 41% | 67% | 28% | inhibition of growth at 10 µM [21]: 21%; inhibition of growth at 10 µM [22]: 57%; inhibition of growth at 10 µM [23]: 90%; inhibition of growth at 10 µM [24]: 60%; inhibition of growth at 10 µM [25]: 41%; inhibition [26]: 1%; inhibition of growth at 10 µM [27]: 30%; inhibition of growth at 10 µM [28]: 33%; inhibition of growth at 10 µM [29]: 52%; inhibition of growth at 10 µM [30]: 4%; inhibition of growth at 10 µM [31]: 47%; inhibition of growth at 10 µM [32]: 13%; inhibition of growth at 10 µM [33]: 48%; inhibition of growth at 10 µM [34]: 57%; inhibition of growth at 10 µM [35]: 47%; inhibition of growth at 10 µM [36]: 53%; inhibition of growth at 10 µM [37]: 35%
2 | COc1ccc(CN2c3ccccc3Sc3ccccc32)c(F)c1 | 67% | 100% | 96% | 59% | 100% | 57% | 49% | 90% | 89% | 100% | 66% | 70% | 50% | 47% | 98% | 48% | 77% | 43% | 92% | 38% | inhibition of growth at 10 µM [21]: 58%; inhibition of growth at 10 µM [22]: 77%; inhibition of growth at 10 µM [23]: 70%; inhibition of growth at 10 µM [24]: 70%; inhibition of growth at 10 µM [25]: 78%; inhibition [26]: 7%; inhibition of growth at 10 µM [27]: 47%; inhibition of growth at 10 µM [28]: 93%; inhibition of growth at 10 µM [29]: 89%; inhibition of growth at 10 µM [30]: 79%; inhibition of growth at 10 µM [31]: 40%; inhibition of growth at 10 µM [32]: 50%; inhibition of growth at 10 µM [33]: 73%; inhibition of growth at 10 µM [34]: 100%; inhibition of growth at 10 µM [35]: 57%; inhibition of growth at 10 µM [36]: 70%; inhibition of growth at 10 µM [37]: 100%
3 | COc1ccc(CN2c3ccccc3CCc3ccccc32)cc1F | 64% | 77% | 98% | 61% | 100% | 64% | 59% | 79% | 100% | 100% | 79% | 76% | 48% | 50% | 96% | 61% | 84% | 16% | 88% | 58% | inhibition of growth at 10 µM [21]: 66%; inhibition of growth at 10 µM [22]: 80%; inhibition of growth at 10 µM [23]: 73%; inhibition of growth at 10 µM [24]: 79%; inhibition of growth at 10 µM [25]: 70%; inhibition [26]: 58%; inhibition of growth at 10 µM [27]: 46%; inhibition of growth at 10 µM [28]: 96%; inhibition of growth at 10 µM [29]: 93%; inhibition of growth at 10 µM [30]: 91%; inhibition of growth at 10 µM [31]: 83%; inhibition of growth at 10 µM [32]: 59%; inhibition of growth at 10 µM [33]: 63%; inhibition of growth at 10 µM [34]: 100%; inhibition of growth at 10 µM [35]: 57%; inhibition of growth at 10 µM [36]: 62%; inhibition of growth at 10 µM [37]: 100%
